Molecules are shown by their SMILES. Where only a bound is given, the exact number is not on record here.

The values that follow come from patent US20220168427A1 (Ranok Therapeutics (Hangzhou) Co. Ltd., priority 2019, published 2022).

For one series, the system named is MV4-11 cells. Briefly: MV4-11 Cell Cytotoxicity Assay. It is filed as cell-based, human. The conditions noted are these: human, MV4-11 cells, CCK-8. The text has this: % Inhibition=100−(D−B)/(S−B)*100%.
S: The absorbance of the maximum (cells with DMSO)
B: The absorbance of the minimum (medium with DMSO)

The next series addresses HSP90α (Homo sapiens, UniProt P07900). Description: HSP90α Binding Fluorescent Polarization (FP) Assay. The conditions noted are these: competition with FITC-geldanamycin; read-out: HSP90 Binding Potency. In outline:
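Competitive FP assay in which compound displaces FITC-geldanamycin from recombinant HSP90α (28 μg/ml before addition) in BSA-containing buffer. Compounds in 3-fold series from 40 μM to 2.0 nM (dilution-plate concentrations), tested in duplicate. Readings after 30, 60 and 120 min at 25 °C; background-subtracted mP fitted to four-parameter log[inhibitor]-response curve.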

In another series the target is T1, BRD4 (BD1+BD2) (Homo sapiens, UniProt O60885).
T1 construct: 1.8 μg/ml recombinant BRD4 (BD1+BD2 domains) protein
The conditions noted are these: read-out: BRD4 Binding Potency.

Regarding `Cc1sc2c(c1C)C(c1ccc(Cl)cc1)=N[C@@H](CC(=O)N1CCC(CN3CCN(c4ccc(-n5c(O)nnc5-c5cc(C(C)C)c(O)cc5O)cc4)CC3)CC1)c1nnc(C)n1-2` [Compound 41, (S)-2-(4-(4-chlorophenyl)-2,3,9-trimethyl-6H-thieno[3,2-f][1,2,4]triazolo[4,3-a][1,4]diazepin-6-yl)-1-(4-((4-(4-(3-(2,4-dihydroxy-5-isopropylphenyl)-5-hydroxy-4H-1,2,4-triazol-4-yl)phenyl)piperazin-1-yl)methyl)piperidin-1-yl)ethanone], the IC50 at 72 h with MV4-11 cells was below 100 nM. The IC50 at HSP90α and on BRD4 (BD1+BD2) was 100 to 1000 nM throughout.
In the case of `Cc1sc2c(c1C)C(c1ccc(Cl)cc1)=N[C@@H](CC(=O)N1CCC(N3CCN(Cc4ccc(-n5c(O)nnc5-c5cc(C(C)C)c(O)cc5O)cc4)CC3)CC1)c1nnc(C)n1-2` [Compound 42, (S)-2-(4-(4-chlorophenyl)-2,3,9-trimethyl-6H-thieno[3,2-f][1,2,4]triazolo[4,3-a][1,4]diazepin-6-yl)-1-(4-(4-(4-(3-(2,4-dihydroxy-5-isopropylphenyl)-5-hydroxy-4H-1,2,4-triazol-4-yl)benzyl)piperazin-1-yl)piperidin-1-yl)ethan-1-one, trifluoroacetic acid], the IC50 at 72 h in the series on MV4-11 cells was below 100 nM. The IC50 on HSP90α and at BRD4 (BD1+BD2) was 100 to 1000 nM in each case.
As to `Cc1sc2c(c1C)C(c1ccc(Cl)cc1)=N[C@@H](CC(=O)N1CCC(N3CCN(c4ccc(-n5c(O)nnc5-c5cc(C(C)C)c(O)cc5O)cc4)CC3)CC1)c1nnc(C)n1-2` [Compound 43, 2-((6S)-4-(4-chlorophenyl)-2,3,9-trimethyl-6H-thieno[3,2-f][1,2,4]triazolo[4,3-a][1,4]diazepin-6-yl)-1-(4-(4-(4-(3-(2,4-dihydroxy-5-isopropylphenyl)-5-hydroxy-4H-1,2,4-triazol-4-yl)phenyl)piperazin-1-yl)piperidin-1-yl)ethanone, trifluoroacetic acid], the IC50 at 72 h in the series on MV4-11 cells is below 100 nM. The IC50 at HSP90α and on BRD4 (BD1+BD2) was 100 to 1000 nM in each case.
As to `Cc1sc2c(c1C)C(c1ccc(Cl)cc1)=N[C@@H](CC(=O)NCC1CCN(C(=O)C3CCN(Cc4ccc(-n5c(O)nnc5-c5cc(C(C)C)c(O)cc5O)cc4)CC3)C1)c1nnc(C)n1-2` (stereo partly drawn) [Compound 45, 2-((S)-4-(4-chlorophenyl)-2,3,9-trimethyl-6H-thieno[3,2-f][1,2,4]triazolo[4,3-a][1,4]diazepin-6-yl)-N-((1-(1-(4-(3-(2,4-dihydroxy-5-isopropylphenyl)-5-hydroxy-4H-1,2,4-triazol-4-yl)benzyl)piperidine-4-carbonyl)pyrrolidin-3-yl)methyl)acetamide, trifluoroacetic acid], in the series on MV4-11 cells, the IC50 at 72 h is below 100 nM. Besides, the IC50 at HSP90α and on BRD4 (BD1+BD2) was below 100 nM each time.
Consider `Cc1sc2c(c1C)C(c1ccc(Cl)cc1)=N[C@@H](CC(=O)NCC(=O)NCC1CCN(C(=O)C3CCN(Cc4ccc(-n5c(O)nnc5-c5cc(C(C)C)c(O)cc5O)cc4)CC3)CC1)c1nnc(C)n1-2` [Compound 46, (S)-2-(4-(4-chlorophenyl)-2,3,9-trimethyl-6H-thieno[3,2-f][1,2,4]triazolo[4,3-a][1,4]diazepin-6-yl)-N-(2-(((1-(1-(4-(3-(2,4-dihydroxy-5-isopropylphenyl)-5-hydroxy-4H-1,2,4-triazol-4-yl)benzyl)piperidine-4-carbonyl)piperidin-4-yl)methyl)amino)-2-oxoethyl)acetamide, trifluoroacetic acid], for which the IC50 at 72 h with MV4-11 cells was below 100 nM. Also, the IC50 at HSP90α and on BRD4 (BD1+BD2) was below 100 nM throughout.
For the molecule `Cc1sc2c(c1C)C(c1ccc(Cl)cc1)=N[C@@H](CC(=O)NCC(=O)NCCOc1ccc(-n3c(S)nnc3-c3cc(C(C)C)c(O)cc3O)cc1)c1nnc(C)n1-2` [Compound 48, (S)-2-(4-(4-chlorophenyl)-2,3,9-trimethyl-6H-thieno[3,2-f][1,2,4]triazolo[4,3-a][1,4]diazepin-6-yl)-N-(2-((2-(4-(3-(2,4-dihydroxy-5-isopropylphenyl)-5-mercapto-4H-1,2,4-triazol-4-yl)phenoxy)ethyl)amino)-2-oxoethyl)acetamide], the IC50 at 72 h in the series on MV4-11 cells is 100 to 1000 nM. Besides, the results for the IC50 on HSP90α and at BRD4 (BD1+BD2) were below 100 nM and 100 to 1000 nM, respectively.
For `Cc1sc2c(c1C)C(c1ccc(Cl)cc1)=N[C@@H](CC(=O)NCCOCCN1CCN(Cc3ccc(-n4c(O)nnc4-c4cc(C(C)C)c(O)cc4O)cc3)CC1)c1nnc(C)n1-2` [Compound 49, 2-((6S)-4-(4-chlorophenyl)-2,3,9-trimethyl-6H-thieno[3,2-f][1,2,4]triazolo[4,3-a][1,4]diazepin-6-yl)-N-(2-(2-(4-(4-(3-(2,4-dihydroxy-5-isopropylphenyl)-5-hydroxy-4H-1,2,4-triazol-4-yl)benzyl)piperazin-1-yl)ethoxy)ethyl)acetamide, trifluoroacetic acid, trifluoroacetic acid, trifluoroacetic acid, trifluoroacetic …], the IC50 at 72 h in the series on MV4-11 cells was below 100 nM. In addition, the IC50 on HSP90α was below 100 nM; on BRD4 (BD1+BD2), 100 to 1000 nM.
Turning to `Cc1sc2c(c1C)C(c1ccc(Cl)cc1)=N[C@@H](CC(=O)NCCOc1cccc(CN(C)Cc3ccc(-n4c(O)nnc4-c4cc(C(C)C)c(O)cc4O)cc3)c1)c1nnc(C)n1-2` [Compound 50, 2-((6S)-4-(4-chlorophenyl)-2,3,9-trimethyl-6H-thieno[3,2-f][1,2,4]triazolo[4,3-a][1,4]diazepin-6-yl)-N-(2-(3-(((4-(3-(2,4-dihydroxy-5-isopropylphenyl)-5-hydroxy-4H-1,2,4-triazol-4-yl)benzyl)(methyl)amino)methyl)phenoxy)ethyl)acetamide, trifluoroacetic acid, trifluoroacetic acid, trifluoroacetic acid, trifluoroacetic …], in the series with MV4-11 cells, the IC50 at 72 h was below 100 nM. Moreover, the IC50 was 100 to 1000 nM at HSP90α and above 1000 nM on BRD4 (BD1+BD2).
In the series on MV4-11 cells, `Cc1sc2c(c1C)C(c1ccc(Cl)cc1)=N[C@@H](CC(=O)NCCOCc1ccc(-n3c(O)nnc3-c3cc(C(C)C)c(O)cc3O)cc1)c1nnc(C)n1-2` [Compound 52, 2-((6S)-4-(4-chlorophenyl)-2,3,9-trimethyl-6H-thieno[3,2-f][1,2,4]triazolo[4,3-a][1,4]diazepin-6-yl)-N-(2-((4-(3-(2,4-dihydroxy-5-isopropylphenyl)-5-hydroxy-4H-1,2,4-triazol-4-yl)benzyl)oxy)ethyl)acetamide] registered an IC50 at 72 h of 100 to 1000 nM. In addition, the IC50 at HSP90α is below 100 nM; at BRD4 (BD1+BD2), above 1000 nM.
As to `Cc1sc2c(c1C)C(c1ccc(Cl)cc1)=N[C@@H](CC(=O)NCC1CCN(C(=O)C3CCN(Cc4ccc(-n5c(O)nnc5-c5cc(C(C)C)c(O)cc5O)cc4)CC3)CC1)c1nnc(C)n1-2` [Compound 53, (S)-2-(4-(4-chlorophenyl)-2,3,9-trimethyl-6H-thieno[3,2-f][1,2,4]triazolo[4,3-a][1,4]diazepin-6-yl)-N-((1-(1-(4-(3-(2,4-dihydroxy-5-isopropylphenyl)-5-hydroxy-4H-1,2,4-triazol-4-yl)benzyl)piperidine-4-carbonyl)piperidin-4-yl)methyl)acetamide, trifluoroacetic acid], the IC50 at 72 h in the series with MV4-11 cells is below 100 nM. Moreover, the IC50 on HSP90α and on BRD4 (BD1+BD2) was 100 to 1000 nM throughout.
Consider `Cc1sc2c(c1C)C(c1ccc(Cl)cc1)=N[C@@H](CC(=O)NCC(=O)NCCOc1ccc(-n3c(O)nnc3-c3cc(C(C)C)c(O)cc3O)cc1)c1nnc(C)n1-2` [Compound 54, (S)-2-(4-(4-chlorophenyl)-2,3,9-trimethyl-6H-thieno[3,2-f][1,2,4]triazolo[4,3-a][1,4]diazepin-6-yl)-N-(2-((2-(4-(3-(2,4-dihydroxy-5-isopropylphenyl)-5-hydroxy-4H-1,2,4-triazol-4-yl)phenoxy)ethyl)amino)-2-oxoethyl)acetamide], for which the IC50 at 72 h with MV4-11 cells was in the range of 100 to 1000 nM. Further, the IC50 on HSP90α was below 100 nM; at BRD4 (BD1+BD2), 100 to 1000 nM.
As to `Cc1sc2c(c1C)C(c1ccc(Cl)cc1)=N[C@@H](CC(=O)NCC(=O)NCCOCCOc1ccc(-n3c(O)nnc3-c3cc(C(C)C)c(O)cc3O)cc1)c1nnc(C)n1-2` [Compound 55, (S)-2-(4-(4-chlorophenyl)-2,3,9-trimethyl-6H-thieno[3,2-f][1,2,4]triazolo[4,3-a][1,4]diazepin-6-yl)-N-(2-((2-(2-(4-(3-(2,4-dihydroxy-5-isopropylphenyl)-5-hydroxy-4H-1,2,4-triazol-4-yl)phenoxy)ethoxy)ethyl)amino)-2-oxoethyl)acetamide], the IC50 at 72 h in the series with MV4-11 cells lay in the range of 100 to 1000 nM. The IC50 on HSP90α and at BRD4 (BD1+BD2) was 100 to 1000 nM each time.
In the case of `CCc1cc(-c2nnc(O)n2-c2ccc(CNC(=O)C[C@@H]3N=C(c4ccc(Cl)cc4)c4c(sc(C)c4C)-n4c(C)nnc43)cc2)c(O)cc1O` [Compound 56, 2-((6S)-4-(4-chlorophenyl)-2,3,9-trimethyl-6H-thieno[3,2-f][1,2,4]triazolo[4,3-a][1,4]diazepin-6-yl)-N-(4-(3-(5-ethyl-2,4-dihydroxyphenyl)-5-hydroxy-4H-1,2,4-triazol-4-yl)benzyl)acetamide], the IC50 at 72 h with MV4-11 cells was 100 to 1000 nM. Also, the IC50 on HSP90α and on BRD4 (BD1+BD2) was 100 to 1000 nM throughout.
Take `Cc1sc2c(c1C)C(c1ccc(Cl)cc1)=N[C@@H](CC(=O)NCC(=O)NCc1ccc(-n3c(O)nnc3-c3cc(C(C)C)c(O)cc3O)cc1)c1nnc(C)n1-2` [Compound 57, 2-((6S)-4-(4-chlorophenyl)-2,3,9-trimethyl-6H-thieno[3,2-f][1,2,4]triazolo[4,3-a][1,4]diazepin-6-yl)-N-(2-((4-(3-(2,4-dihydroxy-5-isopropylphenyl)-5-hydroxy-4H-1,2,4-triazol-4-yl)benzyl)amino)-2-oxoethyl)acetamide]: the IC50 at 72 h in the series on MV4-11 cells fell in the range of 100 to 1000 nM. Further, the IC50 at HSP90α and at BRD4 (BD1+BD2) was 100 to 1000 nM in each case.
